Results on one compound are retold here after patent US20230122932A1, “NEW SEX PHEROMONE COMPONENTS FOR THE FALL ARMYWORM, SPODOPTERA FRUGIPERDA” (North Carolina State University, priority 2020, published 2023).

“Also recorded” adds a separate entry of the source.

For one assay, the system named is antenna of FAW males. In words: GC-EAD electrophysiology of female pheromone gland extract on male antenna. On the set-up: species or system Spodoptera frugiperda. Particulars: 1 μl female pheromone gland extract. On the procedure: Electrophysiology: The sex pheromone gland of ten 3-4-day old FAW females was dissected and placed in a glass insert containing 30 μl hexane (SupraSolv®; MilliporeSigma, Burlington, Mass., United States of America). After 10 min, the hexane extract was transferred to a second insert and concentrated down to 10 μl under a gentle flow of nitrogen. A gas chromatograph coupled to an electroantennogram detector (GC-EAD) was used to identify biologically active compounds that are perceived by the antenna of FAW males, since the antenna is the main olfactory organ of insects. The GC separates chemical mixes into individual compounds and directs them to the insect antenna, which is connected to an amplifier, the EAD. In parallel to the GC, the electrophysiological response of the antenna is recorded to identify the active compounds. An aliquot of 1 μl of the pheromone gland extract was injected in the GC-EAD where a male FAW antenna was mounted. Clean hexane that was handled in the same manner without glands was used as control.

Another assay concerns FAW males. In words: No-choice linear olfactometer behavioral assay. Type of assay: in vivo, Spodoptera frugiperda. On the procedure:
Behavioral Assay: A no-choice linear olfactometer assay was used to test the behavior of FAW males to different formulations. The olfactometer consists of a linear Plexiglas® tube (n=6 cm i.d., length=145 cm) that was connected to an air pump that generated an internal airflow speed of 0.1 m/s. A short Plexiglas® chamber filled with activated charcoal was connected to the opposite end of the olfactometer to filter the inward air. […] An aliquot of […] was added to a piece of filter paper and solvent was left to evaporate for 30 min at room temperature. Filter papers were introduced to the olfactometer through an opening (0=2 cm) on the top of the olfactometer, 4 cm away from the charcoal filter. Filter papers were tested only once. Moths were tested for 5 minutes and the sequence of their behavioral response was recorded as: activation (wing fanning and start moving upwind), reaching the half-way point of the olfactometer (HW), close approach to the odor source (CA), and source contact (contact). The experiment was conducted 4-7 hours into the scotophase.
The tested formulations were: […]
(§1) Statistical analysis: All statistical analyses were performed in R (version 3.5.1). Behavioral responses of male FAW to formulations in the olfactometer were analyzed by binomial generalized linear model. Numbers of male FAW catches in the same day were combined per treatment and analyzed by Poisson generalized linear model (GLM). Treatments that had no catches were not included in the analyses.

Assay [1] concerns male FAW. In words: Field assays, Hartstack traps in cotton field, 2-component pheromone mix with nonanal. Type of assay: in vivo, Spodoptera frugiperda. On the procedure:
Field Assays: Formulations were tested under field conditions. Z9-14:OAc and Z7-12:OAc were diluted in hexane and 100 μL of the solution containing 100 μg and 0.58 μg of the respective compounds was loaded to a rubber septum (11 mm; Wheaton, DWK Life Sciences, Millville, N.J., United States of America). The septum was left inside a fume hood for 15 hr for the solvent to evaporate and then tested in field assays. Nonanal was diluted in paraffin oil and 100 μL of the solution was transferred to a vial dispenser. The solution contained either 0.1 μg or 1 μg, which corresponded to 0.1% and 1% of the amount of Z9-14:OAc. This dispenser constituted a 2 ml borosilicate vial covered with aluminum foil and contained 50 mg of deactivated glass wool. The vial was loaded with a nonanal solution and capped. […] A straightened metal paper clip pierced through the small cup of a pheromone-loaded rubber septum and was tied around the neck of a nonanal-loaded vial. This set was held by a steel alligator clip installed inside a Hartstack trap. We tested the attraction of male FAW to the following treatments: • Control: clean hexane loaded into a rubber septum and clean paraffin oil in a, vial dispenser • Pheromone mix: 100 μj of Z9-14:OAc and 0.58 μg of Z7-12:OAc in rubber septum and clean paraffin oil in vial dispenser • Pheromone 4-0.1% Nonanal: Pheromone mix in rubber septum and 0.1 μg of nonanal in vial dispenser • Pheromone+1% Nonanal: Pheromone mix in rubber septum and 1 μg of nonanal in vial dispenser
The Hartstack trap consisted of a conical body made of metal mesh with a removal top (H: 15 cm, ø=14 cm) in which males were trapped. Traps stood over the canopy of crops on rebars (L: 1.5 m) that were fixed to the ground. Traps were set for one week in a cotton field along the crop row, 15 m apart. Each experimental block consisted of 4 traps 15 m from each other. The next block was set 15 m from the first block and parallel to it. Each treatment was replicated once within a block and assigned randomly to trap positions. The number of trapped male FAW moths and other species were counted daily and traps were rotated.
A second study repeated the same procedure described above but increased the amount of Z9-14:OAc and Z7-12:OAc in the mix to 1000 μg and 5.8 μg, respectively, and nonanal to 10, 20 and 40 μg. The attraction of male FAW was tested to the following treatments: • Control: clean hexane loaded into a rubber septum and clean paraffin oil loaded into a vial dispenser • Pheromone mix: 1000 μg of Z9-14:OAc and 5.8 μg of Z7-12:OAc in rubber septum and clean paraffin oil in vial dispenser (no nonanal). • Pheromone 4-1% Nonanal: Pheromone mix in rubber septum and 10 μg of nonanal in vial dispenser. • Pheromone+2% Nonanal: Pheromone mix in rubber septum and 20 μg of nonanal in vial dispenser. • Pheromone+4% Nonanal: Pheromone mix in rubber septum and 40 μg of nonanal in vial dispenser.
as §1

For assay [2], the system named is male FAW. In words: Field test with commercial lures plus nonanal, Hartstack traps in sorghum crop. Type of assay: in vivo, Spodoptera frugiperda. On the procedure: Field test with commercial formulation: The effect of adding nonanal to commercial formulations was tested in a sorghum crop for five days. Lures were purchased from two commercial suppliers, referred to herein as “Commercial Supplier A” (L105A from Seemly Biologicals Inc., Billings, Mont., United States of America) and “Commercial Supplier B” (FAW 3143 from Trécé, Adair, Okla., United States of America). These lures were formulated by the respective companies in rubber septa. Nonanal was formulated in the same way as described above and a straightened metal paper clip held together both the nonanal-loaded vial and the commercial lure. This set was installed inside a Hartstack trap and traps were positioned in the same manner described above. The attraction of male FAW to the following treatments was tested: • Commercial Supplier B lure combined with clean paraffin oil in vial dispenser (no nonanal). • Commercial. Supplier B lure combined with 20 μg of nonanal in vial dispenser. • Commercial Supplier A lure combined with clean paraffin oil in vial dispenser (no nonanal). • Commercial Supplier A lure combined with 20 μg of nonanal in vial dispenser.
A second study was conducted in the same crop over a second five-day period, aimed to investigate different doses of nominal in combination with Commercial Supplier A lures. Using the same procedure described above, the attraction of male FAW was tested to the following treatments: • Commercial. Supplier A lure combined with clean paraffin oil in vial dispenser (no nonanal). • Commercial Supplier A lure combined with 10 μg of nonanal in vial dispenser. • Commercial Supplier A lure combined with 20 μg of nonanal in vial dispenser. • Commercial Supplier A lure combined with 40 μg of nonanal in vial dispenser. • Commercial Supplier A lure combined with 80 μg of nonanal in vial dispenser.
as §1

[3] abbreviates: nonanal at all doses (0.05, 0.1, 1% relative to 100 ng Z9-14:OAc) added to 2-component formulation, N=15.

Consider `CCCCCCCCC=O` [nonanal], for which, in the assay with antenna of FAW males, the “antennal (EAD) response” value is on record as “active; also recorded: robust antennal responses”. Further, the “males that reached the pheromone source” value is 100% in the assay on FAW males (1% nonanal (1 ng) added to 2-component formulation (Formulation #4), N=15) and “more than 66%” with FAW males (setting [3]). Also, the “effect on attraction / pheromone-triggered response of males” value in the assay on FAW males (nonanal 0.05, 0.1, 1% added to 2-component formulation, olfactometer) was “enhanced the attraction of male FAW”. The compound further displayed a males activated in the assay on FAW males (setting [3]) of 100%. The “trap catch” value with male FAW [1] (0.1% nonanal (0.1 μg) added to 100 μg Z9-14:OAc + 0.58 μg Z7-12:OAc, cotton field) was “intermediate trap catch between the pheromone mix alone and with the addition of 1% nonanal”; in the assay on male FAW [1] (second assay: nonanal alone (1% and 4%), no pheromone mix, cotton field), “did not yield any catch; also recorded: did not catch any males”; with male FAW [2] (second study: 8% nonanal added to Commercial Supplier A lure), “decreased trap catch”. The “improvement of male catches compared to the pheromone mix alone” value with male FAW [1] (1% nonanal (1 μg) added to 100 μg Z9-14:OAc + 0.58 μg Z7-12:OAc, cotton field) came to 155%. The “number of males caught per day” value in the assay on male FAW [1] (1% nonanal added to 100 μg Z9-14:OAc + 0.58 μg Z7-12:OAc, cotton field, three traps, six days) is “highest number of males caught”; with male FAW [1] (second assay: 1% nonanal added to pheromone mix (1 mg Z9-14:OAc), cotton field, nine days), “highest number of male catches per day; also recorded: highest number of males caught”; in the assay on male FAW [2] (20 μg nonanal added to Commercial Supplier A and B lures, sorghum field, four traps per treatment) it was “significantly increased the number of males caught per day compared to the commercial lures alone”; in the assay with male FAW [2] (second study (FIG. 6): nonanal added to Commercial Supplier A (Scentry) lure, sorghum field, five days) it was “significantly increased the number of males caught compared to the commercial lures alone”. The “nonanal percentage (compared to Z9-14:OAc) that rendered the highest number of trap catches in the field” value in the assay on male FAW [1] (field assays) is on record as 1 % (weight/weight). Further, the “numbers of male FAW in traps” value with male FAW [1] (nonanal 0.1 and 1 μg added to 100 μg Z9-14:OAc + 0.58 μg Z7-12:OAc, cotton field) was “significantly increased the numbers of male FAW in traps”. In the assay on male FAW [1] (second assay: 1% nonanal added to 1 mg Z9-14:OAc + 5 μg Z7-12:OAc, cotton field), the “male catches per day, more than the pheromone alone” value was determined as 100%. Moreover, the “number of males caught” value was “decreased the number of males caught and was not significantly different from the pheromone formulation alone” in the assay on male FAW [1] (second assay: 2% nonanal added to pheromone mix (1 mg Z9-14:OAc), cotton field); “decreased the number of males caught and was not significantly different from the pheromone formulation alone” in the assay on male FAW [1] (second assay: 4% nonanal added to pheromone mix (1 mg Z9-14:OAc), cotton field). Also, the “increase of trap catches compared to commercial lure alone” value in the assay on male FAW [2] (20 μg (1%) nonanal added to Commercial Supplier A lure, sorghum field) is on record as 46.5%; in the assay with male FAW [2] (20 μg (1%) nonanal added to Commercial Supplier B lure, sorghum field) it was 53%. For the same compound, the “number of males caught compared to the commercial lure alone” value in the assay on male FAW [2] (second study: 80 μg (4%) nonanal added to Commercial Supplier A lure, sorghum field) is recorded as 52.4%. Moreover, the “trap catches” value in the assay with male FAW [2] (second study: 1% nonanal added to Commercial Supplier A lure) and in the assay on male FAW [2] (second study: 2% nonanal added to Commercial Supplier A lure) was “only slightly increased the trap catches” each time.
